The results in this text go back to patent publication US6884820B2, “5,6,7,8-tetrahydronaphthalen-2-yl-7-fluoroalkyl-heptatrienoic acid derivatives having serum glucose reducing activity” (Allergan, Inc., priority 2003, dated 2005).

One assay has as its target T1, RARγ (Homo sapiens, UniProt P13631).
T1 sequence (P13631 185-419 limits assumed): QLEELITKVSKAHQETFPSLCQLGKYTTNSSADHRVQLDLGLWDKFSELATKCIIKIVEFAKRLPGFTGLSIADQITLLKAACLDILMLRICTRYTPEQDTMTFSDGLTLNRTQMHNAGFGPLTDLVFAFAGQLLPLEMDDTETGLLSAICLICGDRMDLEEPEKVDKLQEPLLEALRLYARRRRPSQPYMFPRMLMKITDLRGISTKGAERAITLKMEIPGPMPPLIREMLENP
Put plainly: chimeric receptor transactivation assay, RARγ.

A further assay concerns the target T2, RARβ (Homo sapiens, UniProt P10826).
T2 sequence (P10826 1-455): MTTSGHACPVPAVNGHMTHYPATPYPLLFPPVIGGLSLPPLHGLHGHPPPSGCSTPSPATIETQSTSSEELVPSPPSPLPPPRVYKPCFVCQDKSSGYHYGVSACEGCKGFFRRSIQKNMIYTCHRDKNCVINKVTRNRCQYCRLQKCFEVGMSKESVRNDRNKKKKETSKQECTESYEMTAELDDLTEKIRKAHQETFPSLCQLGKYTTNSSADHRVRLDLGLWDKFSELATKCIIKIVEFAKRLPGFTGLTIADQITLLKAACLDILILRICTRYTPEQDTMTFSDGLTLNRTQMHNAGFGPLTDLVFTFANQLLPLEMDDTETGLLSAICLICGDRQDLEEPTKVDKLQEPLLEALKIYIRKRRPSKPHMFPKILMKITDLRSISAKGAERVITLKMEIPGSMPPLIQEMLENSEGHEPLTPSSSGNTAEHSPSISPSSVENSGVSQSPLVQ
Description: ligand binding assay, RARβ.

For assay [1], the system named is Female diabetic db/db mice. Description: serum glucose, triglyceride and thyroxine levels in female db/db mice.
Description: An assay described below tests the effect of compounds of the invention on serum glucose, tryglyceride and thyroxine levels in female 9-10 weeks old db/db mice.
Female diabetic db/db (9-10 weeks old) mice were maintained on standard laboratory food and treated by oral gavage with vehicle (corn oil), standard compound (2E, 4E, 1′S, 2′S)-3-methyl-5-[2′-methyl-2′-(5,5,8,8-tetramethyl-5,6,7,8-tetrahydro-naphthalen-2-yl)-cyclopropyl]-penta-2,4-dienoic acid (5 mg/kg) or the test compound (5-100 mg/kg, as described in Table 2) daily for seven days at 8:00 AM. Blood samples (70 μ) were taken by orbital bleeding at 11:00 AM on day 0 (pre-treatment), day 3, and day 6. On day 7, a blood sample (700 μt) was taken at 11:00 AM and the animals were sacrificed. Glucose, triglyceride and thyroxine (T4) levels were determined on a Boehringer Manheim Hatachi Clinical Chemistry Analyzer using standard protocols provided by the manufacturer and reagents that were supplied in commercially available kits (glucose and T4: Boehringer Manheim; triglycerides: Roche Diagnostics).
Where [2] appears, read: Day 0 (pre-treatment), female db/db mice, group later given standard compound 5 mg/kg or Compound 6 50 mg/kg by oral gavage.
[3] abbreviates: Day 3, 3 h, oral gavage daily, standard compound 5 mg/kg, Compound 6 50 mg/kg.

Molecules are shown by their SMILES.

Description for RARβ: The results of the ligand binding assay are expressed in Ki numbers.
Description for RARγ: Efficacy in a transactivation assay is expressed as a percentage of the maximum potency attained by the compound compared to a standard which, in this case, is the compound named (2E, 4E, 1′S, 2′S)-3-methyl-5-[2′-methyl-2′-(5,5,8,8-tetramethyl-5,6,7,8-tetrahydro-naphthalen-2-yl)-cyclopropyl]-penta-2,4-dienoic acid.
Particularly, the transactivation data pertaining to activation of the RAR receptors were obtained in the chimeric assay, and the transactivation data pertaining to the activation of RXR receptors were obtained in the holoreceptor assay.

`CC(/C=C/C=C(c1cc2c(cc1O)C(C)(C)CCC2(C)C)C(F)(F)F)=C\C(=O)O` (stereo in doubt) [Compound 4, (2E,4E,6Z)-8,8,8-Trifluoro-7-(3-hydroxy-5,5,8,8-tetramethyl-5,6,7,8-tetrahydro-naphthalen-2-yl)-3-methyl-octa-2,4,6-trienoic acid]: on RARγ, the concentration for a half-maximal effect (EC50) is above 500 nM. Moreover, the “RAR γ transactivation efficacy as a percentage compared to the standard compound” value on RARγ (value in parentheses, relative to standard compound of U.S. Pat. No. 6,114,533) was around 30%. The affinity at RARβ corresponds to a Ki of 4400 nM.
`CCOc1cc2c(cc1\C(=C/C=C/C(C)=C/C(=O)O)C(F)(F)F)C(C)(C)CCC2(C)C` [Compound 6, (2E,4E,6Z)-7-(3-Ethoxy-5,5,8,8-tetramethyl-5,6,7 8-tetrahydro-naphthalen-2-yl)-8,8,8-trifluoro-3-methyl-octa-2,4,6-trienoic acid] came in with an inhibition constant Ki on RARβ of 372 nM. In addition, in assay [1] (setting [2]), the “Glucose Day 0” value stood at 561 ± 159 mg/dL and the “Triglycerides Day 0” value came to 350 ± 69 mg/dL. Moreover, in assay [1] (setting [3]), the “Glucose Day 3, 3 h” value was 442 ± 164 mg/dL and the “Triglycerides Day 3, 3 h” value is 240 ± 192 mg/dL. For the same compound, in assay [1] (Day 6, 3 h, oral gavage daily, standard compound 5 mg/kg, Compound 6 50 mg/kg), the “Glucose Day 6, 3 h” value is 483 ± 175 mg/dL.
